{"source": "patent US20170202838A1", "about": "“IMMUNOMODULATOR” (TAIHO PHARMACEUTICAL CO., LTD., priority 2015, published 2017)", "key": {"MC38 [1]": {"tested_on": "MC38", "assay": "Tumor volume of subcutaneous mouse colon cancer cell line, in vivo model (Example 9)", "details": "Compound (I) 50 mg/kg, compared with control group (FIG. 11)", "experimental": "(§1) A cell suspension of the mouse colon cancer cell line MC38 was prepared with the use of PBS(-) and 50% Matrigel, and the cell suspension was injected subcutaneously into mice at 1×10^6 cells/mouse. The mice were divided into groups when the average subcutaneous tumor volume reached approximately 50 mm^3, Compound (I) was administered at 50 mg/kg or the anti-PD-1 antibody was administered at 100 μg/mouse, and the tumor volume was measured with the elapse of time. The tumor volume was determined on the basis of the longer diameter and the shorter diameter of the tumor measured percutaneously in accordance with Equation A shown below.\nTumor volume (mm^3)=longer diameter (mm)×shorter diameter (mm)^2/2 (Equation A)"}, "MC38 [2]": {"tested_on": "MC38", "assay": "In vitro growth of mouse colon cancer cell line MC38, CellTiter-Glo2.0 (Reference Example 1)", "assay_type": "cell-based", "details": "MC38, 3 days culture", "experimental": "(§2) The mouse melanoma cell lines B16F10 and K1735M2 and the mouse colon cancer cell line MC38 were seeded in a 96-well plate at 3×10^3 cells/well. Compound (I) or the EGFR tyrosine kinase inhibitor (i.e., Erlotinib, Afatinib, AZD9291, or Co1686 (Rociletinib)) that had been diluted to the given concentration was added 24 hours later. Thereafter, culture was conducted for 3 days, and the number of cells was determined using CellTiter-Glo2.0 (Promega, G9243)."}, "EG.7-OVA": {"tested_on": "EG.7-OVA", "assay": "Peripheral blood immunocyte analysis in mouse model subcutaneously implanted with OVA-expressing thymoma cell line (Example 5)", "assay_type": "in vivo", "details": "Compound (I) 50 mg/kg, 14 days after implantation, compared with control group and anti-PD-1 antibody group (FIG. 6)", "experimental": "A cell suspension of the OVA-expressing mouse thymoma cell line (EG.7-OVA) was prepared with the use of PBS(-) and 50% Matrigel, and the cell suspension (1×10^4 cells/mouse) was implanted into the syngeneic C57BL/6n mice via subcutaneous injection. The mice were divided into groups based on their body weights 1 day after implantation, and Compound (I) was administered thereto at 50 mg/kg or the anti-PD-1 antibody was administered thereto at 100 μg/mouse. A control group to which neither Compound (I) nor the anti-PD-1 antibody had been administered was also prepared. The peripheral blood was sampled 14 days after implantation and analyzed via flow cytometry with the use of antibodies each reacting with a relevant immunocyte surface marker, so as to determine the relative number of CD4-positive cells, CD8-positive cells, and CD4-negative, CD8-negative, and NK1.1-positive cells. […] In the group to which Compound (I) had been administered, the number of all cells increased, compared with the control group and the group to which the anti-PD-1 antibody had been administered."}, "MC38 [3]": {"tested_on": "MC38", "assay": "Immune-system-associated gene expression in tumors via real-time PCR (Example 11)", "assay_type": "in vivo, mouse", "details": "final day of administration, relative to control", "experimental": "as §1, with “(50 mg/kg)” for “was administered at 50 mg/kg”, “antibody (50 μg/mouse)” for “antibody”, “thereto alone or Compound (I) (50 mg/kg) was administered in combination with the anti-PD-1 antibody (50 μg/mouse),” for “at 100 μg/mouse,”\nFIGS. 14 to 16 show changes in the immune-system-associated gene expression levels in tumors of the groups on the final day of administration of Compound (I). The tumor samples were obtained from the groups on the final day of administration of Compound (I) to prepare cDNA samples. The prepared cDNA samples were subjected to gene expression analysis via real-time PCR with the use of various immune-system-associated gene probes, and the results thereof were plotted. β-Actin was used as a control. Each plot indicates a gene expression level relative to a value of one of the controls. In the group to which Compound (I) had been administered, CD3, CD4, CD8, NK1.1, IL-2, IFN-γ, Perforin, Granzyme B, and CD69 gene expression levels increased, compared with those in the group to which Compound (I) had not been administered."}, "K1735M2 [4]": {"tested_on": "K1735M2", "assay": "Tumor volume of subcutaneous mouse melanoma cell line, potentiation of anti-PD-1 or anti-PD-L1 antibody, in vivo model (Example 10)", "details": "Compound (I) 50 mg/kg, antibody 100 μg/mouse, alone or in combination (FIG. 12)", "experimental": "A cell suspension of the mouse melanoma cell line K1735M2 was prepared with the use of PBS(-) and 50% Matrigel, and the cell suspension was injected subcutaneously into mice at 1×10^6 cells/mouse. The mice were divided into groups based on their body weights 1 day after implantation, Compound (I) (50 mg/kg) or the anti-PD-1 antibody or anti-PD-L1 antibody (100 μg/mouse) was administered thereto alone or either the anti-PD-1 antibody or the anti-PD-L1 antibody was administered in combination with Compound (I), and the tumor volume was measured with the elapse of time. The tumor volume was determined on the basis of the longer diameter and the shorter diameter of the tumor measured percutaneously in accordance with Equation A shown above."}, "[5]": {"tested_on": "C57BL/6N mouse spleen cells mixed with irradiated BALB/c mouse spleen cells", "assay": "T cell modulation through mixed lymphocyte reaction, 3H-Thd uptake (Example 3)", "assay_type": "cell-based", "details": "allogeneic mixed spleen cells, 3 days culture (FIG. 4)", "text": "A mixed lymphocyte reaction (MLR) is a representative experimentation technique for T cell modulation described in, for example, J. Exp. Med. 127 (5): 879-90, 1968. The influence of Compound (I) imposed on T cell modulation through this reaction was examined.\nSpleens were extracted from C57BL/6N mice and BALB/c mice, grinded with glass slides with frosted areas, and then subjected to hemolysis, so as to obtain spleen cells. The C57BL/6N mouse spleen cells and the BALB/c mouse spleen cells were introduced into a complete medium (i.e., RPMI-1640 supplemented with 10% heat-inactivated FBS, 100 U/ml penicillin, 100 μg/ml streptomycin, and 55 μM 2-mercaptoethanol). The BALB/c mouse spleen cells were irradiated with 30 Gy X-ray to destroy the growth activity. The spleen cells of these allogeneic mice were each added to the final concentration of 1×10^5 cells/well and mixed (Alo), and Compound (I) or the EGFR tyrosine kinase inhibitor (i.e., AZD09291 or Erlotinib) adjusted to relevant concentrations was added thereto. As a control sample, a mixture of syngeneic C57BL/6N mouse spleen cells (Syn) was also prepared. The culture solution was seeded in a 96-well plate at 200 μl/well and then cultured in an incubator at 37° C. in the presence of 5% CO2 for 3 days. […] The amount of 3H-Thd uptake was measured using a liquid scintillation counter."}, "K1735M2 [6]": {"tested_on": "K1735M2", "assay": "In vitro growth of mouse melanoma cell line K1735M2, CellTiter-Glo2.0 (Reference Example 1)", "assay_type": "cell-based", "details": "K1735M2, 3 days culture", "experimental": "as §2"}}}
{"compound": "C=CC(=O)N[C@H]1CCc2c(-c3cnc4ccccc4c3)c3c(N)ncnc3n2C1", "note": "[Compound (I), (S)—N-(4-amino-5-(quinolin-3-yl)-6,7,8,9-tetrahydropyrimido[5,4-b]indolizin-8-yl)acrylamide]", "values": [{"measurement": "extent of tumor growth inhibition (tumor volume)", "setting": "MC38 [1]", "value": "greater"}, {"measurement": "suppression of cell growth (number of cells)", "setting": "MC38 [2]", "value": "did not suppress the growth of any cells"}, {"measurement": "relative number of CD4-negative, CD8-negative, and NK1.1-positive cells in peripheral blood", "setting": "EG.7-OVA", "value": "increased"}, {"measurement": "relative number of CD4-positive cells in peripheral blood", "setting": "EG.7-OVA", "value": "increased"}, {"measurement": "relative number of CD8-positive cells in peripheral blood", "setting": "EG.7-OVA", "value": "increased"}, {"measurement": "CD3 gene expression level in tumors", "setting": "MC38 [3]; β-Actin control (FIG. 14)", "value": "increased"}, {"measurement": "CD4 gene expression level in tumors", "setting": "MC38 [3]; β-Actin control (FIG. 14)", "value": "increased"}, {"measurement": "CD8 gene expression level in tumors", "setting": "MC38 [3]; β-Actin control (FIG. 14)", "value": "increased"}, {"measurement": "IFN-γ gene expression level in tumors", "setting": "MC38 [3]; β-Actin control (FIG. 15)", "value": "increased"}, {"measurement": "IL-2 gene expression level in tumors", "setting": "MC38 [3]; β-Actin control (FIG. 15)", "value": "increased"}, {"measurement": "NK1.1 gene expression level in tumors", "setting": "MC38 [3]; β-Actin control (FIG. 15)", "value": "increased"}, {"measurement": "CD69 gene expression level in tumors", "setting": "MC38 [3]; β-Actin control (FIG. 16)", "value": "increased"}, {"measurement": "Granzyme B gene expression level in tumors", "setting": "MC38 [3]; β-Actin control (FIG. 16)", "value": "increased"}, {"measurement": "Perforin gene expression level in tumors", "setting": "MC38 [3]; β-Actin control (FIG. 16)", "value": "increased"}, {"measurement": "extent of tumor growth inhibition (tumor volume)", "setting": "K1735M2 [4]", "value": "not sufficient"}, {"measurement": "amount of 3H-Thd uptake (amount of T cells grown through the mixed lymphocyte reaction)", "setting": "[5]", "value": "induced the growth of T cells"}, {"measurement": "suppression of cell growth (number of cells)", "setting": "K1735M2 [6]", "value": "did not suppress the growth of any cells"}]}
